Three molecules from US20260070919A1, “CRYSTAL FORM OF FIVE-MEMBERED AND SIX-MEMBERED HETEROCYCLIC COMPOUND, PREPARATION METHOD THEREFOR, AND USE THEREOF” (BEIJING MAXINOVEL PHARMACEUTICALS CO., LTD., priority 2022, published 2026) can be followed below.

Assay type in all cases: physicochemical
A short description of data set [1]: Dynamic vapor sorption (DVS). The conditions noted are these: for weight gain from 0% RH to 95% RH (moisture absorption): 25° C., weight percentage. The protocol:
A sample of crystal form I of the compound represented by formula 1 (10 mg) was weighed, and dried for 60 minutes at a temperature of 25° C. and a humidity of 0% RH. The moisture absorption characteristics of the sample were tested as the humidity changed from 0% RH to 95% RH, and the desorption characteristics of the sample were tested as the humidity changed from 95% RH to 0% RH. The humidity change in each step was 5% RH, with an equilibrium criterion of a weight change rate of less than 0.01%/min within 5 minutes and a maximum equilibration time of 2 hours.
A sample of crystal form II of the compound represented by formula 1 (10 mg) was weighed, and dried for 60 minutes at a temperature of 25° C. and a humidity of 0% RH. The moisture absorption characteristics of the sample were tested as the humidity changed from 0% RH to 95% RH, and the desorption characteristics of the sample were tested as the humidity changed from 95% RH to 0% RH. The humidity change in each step was 5% RH, with an equilibrium criterion of a weight change rate of less than 0.01%/min within 5 minutes and a maximum equilibration time of 2 hours.
A sample of crystal form III of the compound represented by formula 1 (10 mg) was weighed, and dried for 60 minutes at a temperature of 25° C. and a humidity of 0% RH. The moisture absorption characteristics of the sample were tested as the humidity changed from 0% RH to 95% RH, and the desorption characteristics of the sample were tested as the humidity changed from 95% RH to 0% RH. The humidity change in each step was 5% RH, with an equilibrium criterion of a weight change rate of less than 0.01%/min within 5 minutes and a maximum equilibration time of 2 hours.

A short description of data set [2]: XRPD re-characterization of the precipitated sample after days. The protocol:
20 mg of the compound represented by formula 1 was weighed into a glass vial, which was placed in a 50° C. water bath with a rotational speed of 400 rpm. 90 times the volume of ethyl acetate as good solvent was added to the vial, and the mixture was heated to obtain a clarified solution, which was maintained at the same temperature for 15 minutes. 70 times the volume of n-heptane as anti-solvent was slowly added dropwise thereto under stirring to precipitate a solid, and the mixture was stirred for another 10 minutes. A sample was taken and centrifuged, naturally dried, and characterized by XRPD as crystal form II.
Following the same operational procedure as in method 3, crystal form II was also obtained by using the good solvent and anti-solvent listed in the table below.
Method: An appropriate amount of sample was taken and spread evenly on a single-crystal silicon wafer, and XRPD testing was conducted at room temperature. The specific experimental parameters were as follows: the light source was CuKα, the X-ray intensity was 40 kV/40 mA, the scanning mode was Theta-theta, the scanning angle range was 4° to 40°, the step size was 0.05°, and the scanning speed was 0.5 seconds per step.

The nature of data set [3]: Stability test (influencing factors and accelerated conditions; HPLC, appearance, XRPD, DSC). The protocol: Appropriate amounts of crystal form II and crystal form III of the compound represented by formula 1 were accurately weighed into 20 mL colorless transparent glass vials, which were placed under corresponding influencing factors (high temperature at 60° C., high humidity of 92.5% RH) and accelerated conditions (40° C./75% RH) respectively. After 1 week and 2 weeks, the samples were removed for HPLC analysis to determine the content and related substances, thereby evaluating the chemical stability of crystal form II and crystal form III. The samples were also characterized by appearance, XRPD, and DSC to assess the physical stability of the two crystal forms. Additionally, samples of crystal form II and crystal form III were accurately weighed into 20 mL colorless transparent glass vials, which were tightly sealed and stored in a −20° C. freezer as standard samples for HPLC analysis.

Where [4] appears, read: after 2 weeks under −20° C., high temperature, high humidity, light, and accelerated conditions.

SMILES strings stand for the structures.

With `CCS(=O)(=O)N1CC(CC#N)(n2cc(-c3nc(Nc4cnn(C)c4)nc4ccsc34)cn2)C1` [Crystal form I], the “weight gain from 0% RH to 95% RH (moisture absorption)” value (from here on “weight gain from 0% RH to 95% RH”) in data set [1] was determined as 3.025%.
For `CCS(=O)(=O)N1CC(CC#N)(n2cc(-c3nc(Nc4cnn(C)c4)nc4ccsc34)cn2)C1` [Crystal form II], the “crystal form by XRPD after standing” value in data set [2] (after 6 days, good solvent / methyl tert-butyl ether) is “remained as crystal form II”; in data set [2] (after 8 days, ethyl acetate / n-heptane), “remained as crystal form II”. Further, the Appearance result in data set [3] (Accelerated (40° C./75%)) is recorded as “Yellow”; in data set [3] (High humidity (92.5% RH)), “Yellow”; in data set [3] (High temperature (60° C.)), “Yellow”; in data set [3] (control group, −20° C.) it was “Yellow”. The physicochemical stability result in data set [3] (−20° C., high temperature, high humidity, and accelerated conditions) is reported as “good physicochemical stability”. In data set [1] (0% RH to 95% RH), the “hygroscopicity (in words)” value is on record as “almost no hygroscopicity”. In addition, the “weight gain from 0% RH to 95% RH” value in data set [1] turned out to be 0.1047%.
Consider `CCS(=O)(=O)N1CC(CC#N)(n2cc(-c3nc(Nc4cnn(C)c4)nc4ccsc34)cn2)C1` [Crystal form III], for which the Appearance result in data set [3] (Accelerated (40° C./75%)) was “Bright yellow”; in data set [3] (High humidity (92.5% RH)), “Bright yellow”; in data set [3] (High temperature (60° C.)), “Bright yellow”; in data set [3] (control group, −20° C.), “Bright yellow”. Moreover, the chemical stability result in data set [3] (setting [4]) is given as “good chemical stability”. For the same molecule, the “physical stability (crystal form conversion)” value in data set [3] (setting [4]) is reported as “partial conversion of crystal form III to crystal form II”. In addition, the “weight gain from 0% RH to 95% RH” value in data set [1] stood at 0.4084%.
